# Read-outs that look alike come from different tables or passages of the source.
# Experiments:
# Format in all cases: cell-based
# Salmonella heidelberg = assay: Gradient Plate technique, MIC; details: Salmonella enterica, read-out: Minimum Inhibitory Concentration
# Text: (§1) The following Table II lists the minimum inhibitory concentration (MIC) for 7-[2-(2-thienyl)acetamido]-3-chloro-3-cephem-4-carboxylic acid against penicillin resistant Staphylococcus both in the presence of and absence of serum. The MIC values were obtained by the Gradient Plate technique carried out essentially as described by Bryson and Szybalski, Science, 116, 45 (1952).
# (§2) In Table III, below, the MIC values for the test compound of Tables I and II against representative gram-negative organisms is presented. The data were obtained by the Gradient Plate technique.
# (§3) The minimum inhibitory concentrations for 7-[2-(2-thienyl)acetamido]-3-bromo-3-cephem-4-carboxylic acid against representative gram-negative bacteria is presented in Table VI. The data were obtained by the Gradient Plate Method.
# (§4) Tables VII and VIII list the minimum inhibitory concentrations of the test compound effective against representative penicillin resistant Staphylococcus strains, while […] the MIC values obtained against representative gram-negative microorganisms. The data were obtained by the Gradient Plate method.
# Pseudomonas aeruginosa = assay: Gradient Plate technique, MIC; details: read-out: Minimum Inhibitory Concentration
# Text: as §1, §2, §3, §4
# Klebsiella pneumoniae [1] = assay: Gradient Plate technique, MIC; details: read-out: Minimum Inhibitory Concentration
# Text: as §1, §2, §3, §4
# Serratia marcescens = assay: Gradient Plate technique, MIC; details: read-out: Minimum Inhibitory Concentration
# Text: as §1, §2, §3, §4
# Shigella sp. = assay: Gradient Plate technique, MIC; details: read-out: Minimum Inhibitory Concentration
# Text: as §1, §2, §3, §4
# Escherichia coli [2] = assay: Gradient Plate technique, MIC; details: read-out: Minimum Inhibitory Concentration
# Text: as §1, §2, §3, §4
# Aerobacter aerogenes = assay: Gradient Plate technique, MIC; details: Klebsiella aerogenes, read-out: Minimum Inhibitory Concentration
# Text: as §1, §2, §3, §4
# [3] = test system: Pseudomonas solanacearcum; assay: standard disc-plate method, zone of inhibition; details: Pseudomonas, Table I, read-out: Zone of Inhibition (diameter in mm)
# Text: (§5) The in vitro antimicrobial activity of the 3-halo cephalosporins is illustrated by the data in the following tables. Table I contains the antimicrobial activity for 7-[2-(2-thienyl)acetamido]-3-chloro-3-cephem-4-carboxylic acid obtained in the standard Disc-plate method. The numerical values are the diameter in millimeters of the zones of inhibition observed with the named organisms.
# (§6) In Table IV below, the in vitro antimicrobial activity of 7-[2-(2-thienyl)acetamido]-3-bromo-3-cephem-4-carboxylic acid is presented for several illustrative microorganisms. The data presented were obtained in the standard disc-plate method with the numerical values recording the diameter in millimeters of the zones of inhibition observed with the named microorganisms.
# Salmonella gallinarum = assay: standard disc-plate method, zone of inhibition; details: Salmonella enterica, GALLINARUM, Table I, read-out: Zone of Inhibition (diameter in mm)
# Text: as §5, §6
# Escherichia coli [4] = assay: standard disc-plate method, zone of inhibition; design: key: H: hazy zone of inhibition; Tr: trace zone of inhibition; details: 0.01 mg/ml; Table I
# Text: as §5, §6
# [5] = test system: Methicillin resistant Staphylococcus; assay: Gradient Plate technique, MIC; details: Clinical Isolate X400 (methicillin resistant)
# [6] = test system: Penicillin Resistant Staphylococcus; assay: Gradient Plate technique, MIC; details: read-out: Minimum Inhibitory Concentration
# Text: as §1, with “(1952). […]” for “(1952).”
# Proteus vulgaris = assay: standard disc-plate method, zone of inhibition; details: 1.0 mg/ml, Table I, read-out: Zone of Inhibition (diameter in mm)
# Text: as §5, §6
# Klebsiella pneumoniae [7] = assay: standard disc-plate method, zone of inhibition; details: Table I, read-out: Zone of Inhibition (diameter in mm)
# Text: as §5, §6
# Bacillus subtilis = assay: standard disc-plate method, zone of inhibition; details: Table I, read-out: Zone of Inhibition (diameter in mm)
# Text: as §5, §6
# Staphylococcus aureus = assay: standard disc-plate method, zone of inhibition; details: Table I, read-out: Zone of Inhibition (diameter in mm)
# Text: as §5, §6
# Sarcina lutea = assay: standard disc-plate method, zone of inhibition; details: Micrococcus luteus, Table I, read-out: Zone of Inhibition (diameter in mm)
# Text: as §5, §6
# Escherichia coli [8] = assay: standard disc-plate method, zone of inhibition; details: Table I, read-out: Zone of Inhibition (diameter in mm)
# Text: as §5, §6
# Mycobacterium avium = assay: standard disc-plate method, zone of inhibition; details: 1.0 mg/ml, Table I, read-out: Zone of Inhibition (diameter in mm)
# Text: as §5, §6
# bioautogram = assay: bioautogram
# Experimental: To 110 ml. of methanol and 83 mg. of pre-reduced 5 percent palladium on carbon were added 83 mg. of p-nitrobenzyl 7-[2-(2-thienyl)acetamido]-3-fluoro-3-cephem-4-carboxylate. The mixture was hydrogenated at 53 psig. for one hour. The resulting mixture was filtered, the filtered catalyst was washed with methanol, and the methanol washings were added to the filtrate. The filtrate was then evaporated in vacuo. The residue was dissolved in ethyl acetate, and the ethyl acetate solution was extracted with dilute aqueous sodium bicarbonate. The sodium bicarbonate solution was washed with ethyl acetate, layered with ethyl acetate, and dilute aqueous HCl was added.
structure (smiles),measurement,setting,value
O=C(Cc1cccs1)NC1C(=O)N2C(C(=O)O)=C(Cl)CS[C@H]12 (stereo partly drawn) [7-[2-(2-Thienyl)acetamido]-3-chloro-3-cephem-4-carboxylic acid],MIC,Salmonella heidelberg,0.8 µg/mL
same,MIC,Pseudomonas aeruginosa,> 200 µg/mL
same,MIC,Klebsiella pneumoniae [1],0.6 µg/mL
same,MIC,Serratia marcescens,> 200 µg/mL
same,MIC,Shigella sp.,25 µg/mL
same,MIC,Escherichia coli [2],18.5 µg/mL
same,MIC,Aerobacter aerogenes,0.8 µg/mL
same,zone of inhibition at 100 µg/mL,[3]; 0.1 mg/ml,21 mm
same,zone of inhibition at 1000 µg/mL,[3]; 1.0 mg/ml,28 mm
same,zone of inhibition at 100 µg/mL,Salmonella gallinarum; 0.1 mg/ml,22 mm
same,zone of inhibition at 1000 µg/mL,Salmonella gallinarum; 1.0 mg/ml,32 mm
same,Zone of Inhibition (diameter in mm),Escherichia coli [4],Tr
same,Minimum Inhibitory Concentration,[5]; Serum,> 20 µg/mL
same,MIC,"[5]; Staphylococcus, No Serum, read-out: Minimum Inhibitory Concentration",> 20 µg/mL
same,MIC,"[6]; Clinical Isolate V 32, No Serum",8.4 µg/mL
same,MIC,"[6]; Clinical Isolate V 32, Serum",> 20 µg/mL
same,MIC,"[6]; Clinical Isolate V 41, No Serum",5 µg/mL
same,MIC,"[6]; Clinical Isolate V 41, Serum",7 µg/mL
same,MIC,"[6]; Clinical Isolate V 84, No Serum",0.8 µg/mL
same,MIC,"[6]; Clinical Isolate V 84, Serum",1 µg/mL
same,MIC,"[6]; Clinical Isolate X 1.1, No Serum",0.2 µg/mL
same,MIC,"[6]; Clinical Isolate X 1.1, Serum",< 0.1 µg/mL
same,zone of inhibition at 1000 µg/mL,Proteus vulgaris,17 mm
same,zone of inhibition at 10 µg/mL,Klebsiella pneumoniae [7]; 0.01 mg/ml,13 mm
same,zone of inhibition at 100 µg/mL,Klebsiella pneumoniae [7]; 0.1 mg/ml,27 mm
same,zone of inhibition at 1000 µg/mL,Klebsiella pneumoniae [7]; 1.0 mg/ml,36 mm
same,zone of inhibition at 10 µg/mL,Bacillus subtilis; 0.01 mg/ml,24 mm
same,zone of inhibition at 100 µg/mL,Bacillus subtilis; 0.1 mg/ml,40 mm
same,zone of inhibition at 1000 µg/mL,Bacillus subtilis; 1.0 mg/ml,48 mm
same,zone of inhibition at 10 µg/mL,Staphylococcus aureus; 0.01 mg/ml,20 mm
same,zone of inhibition at 100 µg/mL,Staphylococcus aureus; 0.1 mg/ml,29 mm
same,zone of inhibition at 1000 µg/mL,Staphylococcus aureus; 1.0 mg/ml,31 mm
same,zone of inhibition at 10 µg/mL,Sarcina lutea; 0.01 mg/ml,21 mm
same,zone of inhibition at 100 µg/mL,Sarcina lutea; 0.1 mg/ml,28 mm
same,zone of inhibition at 1000 µg/mL,Sarcina lutea; 1.0 mg/ml,37 mm
same,zone of inhibition at 100 µg/mL,Escherichia coli [8]; 0.1 mg/ml,19 mm
same,zone of inhibition at 1000 µg/mL,Escherichia coli [8]; 1.0 mg/ml,24 mm
same,zone of inhibition at 1000 µg/mL,Mycobacterium avium,14 mm
O=C(Cc1cccs1)NC1C(=O)N2C(C(=O)O)=C(F)CS[C@H]12 (stereo partly drawn) [7-[2-(2-Thienyl)acetamido]-3-fluoro-3-cephem-4-carboxylic acid],biological activity by bioautogram,bioautogram,biologically active

# From patent publication US4260745A, “3-Halo cephalosporins” (Eli Lilly and Company, priority 1979, dated 1981)
